Measurements as given in patent publication US6737383B1, “Herbicidal oxadiazolidines” (priority 1999, dated 2004).

Assays:
smallflower flatsedge = assay: Test B flood test smallflower flatsedge; assay type: in vivo, Cyperus difformis
How it was run: (§1)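 Plants were grown to the 2-leaf stage before treatment with test chemical, then held in a greenhouse for twelve to sixteen days. Injury was visually rated against untreated controls on a 0–10 scale, where 0 is no effect and 10 is complete control.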

morningglory = assay: Test B pre/postemergence morningglory; assay type: in vivo, Ipomoea hederacea
How it was run: (§2)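 Response is a visual 0-to-10 score relative to untreated plants, where 0 means no effect and 10 means complete control, taken twelve to sixteen days after application. Treatments went onto soil at planting and onto foliage of 1- to 4-leaf plants, using a surfactant-containing non-phytotoxic solvent.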

soybean = assay: Test B pre/postemergence soybean; assay type: in vivo, Glycine max
How it was run: as §2

wild oat = assay: Test B pre/postemergence wild oat; assay type: in vivo, Avena fatua
How it was run: as §2

corn = assay: Test B pre/postemergence corn; assay type: in vivo, Zea mays
How it was run: as §2

crabgrass = assay: Test B pre/postemergence crabgrass; assay type: in vivo, Digitaria sanguinalis
How it was run: as §2

rice = assay: Test B flood test rice; assay type: in vivo, Oryza sativa
How it was run: as §1

duck salad = assay: Test B flood test duck salad; assay type: in vivo, Heteranthera limosa
How it was run: as §1

rape = assay: Test B pre/postemergence rape; assay type: in vivo, Brassica napus
How it was run: as §2

cocklebur = assay: Test B pre/postemergence cocklebur; assay type: in vivo, Xanthium strumarium
How it was run: as §2

velvetleaf = assay: Test B pre/postemergence velvetleaf; assay type: in vivo, Abutilon theophrasti
How it was run: as §2

wheat = assay: Test B pre/postemergence wheat; assay type: in vivo, Triticum aestivum
How it was run: as §2

sugar beet = assay: Test B pre/postemergence sugar beet; assay type: in vivo, Beta vulgaris
How it was run: as §2

giant foxtail = assay: Test B pre/postemergence giant foxtail; assay type: in vivo, Setaria faberii
How it was run: as §2

pigweed = assay: Test B pre/postemergence pigweed; assay type: in vivo, Amaranthus retroflexus
How it was run: as §2

purple nutsedge = assay: Test B pre/postemergence purple nutsedge; assay type: in vivo, Cyperus rotundus
How it was run: as §2

[1] = Postemergence (flood test species), Rate 125 g/ha, scale of 0 to 10 where 0 is no effect and 10 is complete control
[2] = Rate 62 g/ha, Postemergence section, flood test species, scale of 0 to 10 where 0 is no effect and 10 is complete control
[3] = Rate 250 g/ha, Postemergence (flood test), scale 0 to 10, 0 is no effect, 10 is complete control
[4] = Rate 250 g/ha, Pre-emergence, flood-test species, scale 0 to 10, 0 is no effect, 10 is complete control
[5] = Rate 500 g/ha, listed under Postemergence (flood test species), scale 0 to 10
[6] = Rate 2000 g/ha, Pre-emergence (as headed), scale 0 to 10
[7] = Postemergence, Rate 125 g/ha, scale of 0 to 10 where 0 is no effect and 10 is complete control
[8] = Postemergence, Rate 1000 g/ha, scale 0 to 10 (0 no effect, 10 complete control)
[9] = Preemergence, Rate 62 g/ha, scale of 0 to 10 where 0 is no effect and 10 is complete control
[10] = Preemergence, Rate 125 g/ha, 0 is no effect, 10 is complete control
[11] = Preemergence, Rate 250 g/ha, scale 0 to 10, 0 is no effect, 10 is complete control
[12] = Preemergence, Rate 500 g/ha, scale 0 to 10 (0 no effect, 10 complete control)
[13] = Rate 62 g/ha, Postemergence, scale of 0 to 10 where 0 is no effect and 10 is complete control
[14] = Rate 250 g/ha, Postemergence, scale 0 to 10, 0 is no effect, 10 is complete control
[15] = Rate 500 g/ha, Postemergence, scale 0 to 10
[16] = Rate 1000 g/ha, Preemergence, scale 0 to 10 (0 no effect, 10 complete control)
[17] = Rate 2000 g/ha, Postemergence, scale 0 to 10
[18] = Rate 2000 g/ha, Preemergence, scale 0 to 10
[19] = Rate 500 g/ha, headed Pre-emergence (flood test species), scale 0 to 10 (0 no effect, 10 complete control)
[20] = Rate 1000 g/ha, Pre-emergence (as headed), scale 0 to 10

CC(C)N(C(=O)n1oc(=O)n(N(C)c2ccccc2)c1=O)c1ccc(F)cc1 [Compound 177]
S. Flatsedge plant response rating (smallflower flatsedge; [1]): 0
S. Flatsedge plant response rating (smallflower flatsedge; Pre-emergence, Rate 1000 g/ha, scale 0 to 10 (0 no effect, 10 complete control)): 0
S. Flatsedge plant response rating (smallflower flatsedge; [2]): 0
Plant response rating, S. Flatsedge (smallflower flatsedge; [3]): 0
S. Flatsedge plant response rating (smallflower flatsedge; [4]): 0
S. Flatsedge plant response rating (smallflower flatsedge; [5]): 0
S. Flatsedge plant response rating (smallflower flatsedge; Rate 500 g/ha, Pre-emergence, flood test species, scale 0 to 10 (0 no effect, 10 complete control)): 0
S. Flatsedge plant response rating (smallflower flatsedge; [6]): 0
Morningglory plant response rating (morningglory; [7]): 0
Morningglory plant response rating (morningglory; [8]): 1
Morningglory plant response rating (morningglory; [9]): 0
Morningglory plant response rating (0 to 10 scale) (morningglory; [10]): 0
Morningglory plant response rating (morningglory; [11]): 0
Morningglory plant response rating (morningglory; [12]): 0
Morningglory plant response rating (morningglory; [13]): 0
Plant response rating, Morningglory (morningglory; [14]): 2
Morningglory plant response rating (morningglory; [15]): 4
Plant response rating, Morningglory (morningglory; [16]): 0
Morningglory plant response rating (morningglory; [17]): 1
Morningglory plant response rating (morningglory; [18]): 0
Soybean plant response rating (soybean; [7]): 1
Soybean plant response rating (soybean; [8]): 3
Soybean plant response rating (soybean; [9]): 0
Soybean plant response rating (0 to 10 scale) (soybean; [10]): 0
Soybean plant response rating (soybean; [11]): 0
Soybean plant response rating (soybean; [12]): 0
Soybean plant response rating (soybean; [13]): 1
Plant response rating, Soybean (soybean; [14]): 2
Soybean plant response rating (soybean; [15]): 4
Plant response rating, Soybean (soybean; [16]): 0
Soybean plant response rating (soybean; [17]): 4
Soybean plant response rating (soybean; [18]): 0
Wild oats plant response rating (wild oat; [8]): 2
Wild oats plant response rating (wild oat; [9]): 0
Wild oats plant response rating (0 to 10 scale) (wild oat; [10]): 0
Wild oats plant response rating (wild oat; [11]): 0
Wild oats plant response rating (wild oat; [12]): 2
Plant response rating, Wild oats (wild oat; [14]): 0
Wild oats plant response rating (wild oat; [15]): 0
Plant response rating, Wild oats (wild oat; [16]): 10
Wild oats plant response rating (wild oat; [17]): 2
Wild oats plant response rating (wild oat; [18]): 10
Corn plant response rating (corn; [7]): 0
Corn plant response rating (corn; [8]): 0
Corn plant response rating (corn; [9]): 0
Corn plant response rating (0 to 10 scale) (corn; [10]): 0
Corn plant response rating (corn; [11]): 0
Corn plant response rating (corn; [12]): 0
Corn plant response rating (corn; [13]): 0
Plant response rating, Corn (corn; [14]): 0
Corn plant response rating (corn; [15]): 0
Plant response rating, Corn (corn; [16]): 0
Corn plant response rating (corn; [17]): 0
Corn plant response rating (corn; [18]): 0
Crabgrass plant response rating (crabgrass; [7]): 0
Crabgrass plant response rating (crabgrass; [8]): 0
Crabgrass plant response rating (crabgrass; [9]): 1
Crabgrass plant response rating (0 to 10 scale) (crabgrass; [10]): 6
Crabgrass plant response rating (crabgrass; [11]): 9
Crabgrass plant response rating (crabgrass; [12]): 9
Crabgrass plant response rating (crabgrass; [13]): 0
Plant response rating, Crabgrass (crabgrass; [14]): 2
Crabgrass plant response rating (crabgrass; [15]): 3
Plant response rating, Crabgrass (crabgrass; [16]): 8
Crabgrass plant response rating (crabgrass; [17]): 0
Crabgrass plant response rating (crabgrass; [18]): 9
Rice plant response rating (rice; [1]): 0
Rice plant response rating (rice; [2]): 0
Plant response rating, Rice (rice; [3]): 0
Rice plant response rating (rice; [4]): 0
Plant response rating, Rice (rice; [19]): 0
Rice plant response rating (rice; [5]): 0
Rice plant response rating (rice; [20]): 0
Rice plant response rating (rice; [6]): 0
Ducksalad plant response rating (duck salad; [1]): 0
Ducksalad plant response rating (duck salad; [2]): 0
Plant response rating, Ducksalad (duck salad; [3]): 2
Ducksalad plant response rating (duck salad; [4]): 0
Plant response rating, Ducksalad (duck salad; [19]): 0
Ducksalad plant response rating (duck salad; [5]): 2
Ducksalad plant response rating (duck salad; [20]): 0
Ducksalad plant response rating (duck salad; [6]): 0
Rape plant response rating (rape; [7]): 0
Rape plant response rating (rape; [8]): 0
Rape plant response rating (rape; [9]): 0
Rape plant response rating (0 to 10 scale) (rape; [10]): 0
Rape plant response rating (rape; [11]): 0
Rape plant response rating (rape; [12]): 0
Rape plant response rating (rape; [13]): 0
Plant response rating, Rape (rape; [14]): 0
Rape plant response rating (rape; [15]): 0
Plant response rating, Rape (rape; [16]): 0
Rape plant response rating (rape; [17]): 3
Rape plant response rating (rape; [18]): 0
Cocklebur plant response rating (cocklebur; [7]): 0
Cocklebur plant response rating (cocklebur; [8]): 0
Cocklebur plant response rating (cocklebur; [9]): 0
Cocklebur plant response rating (0 to 10 scale) (cocklebur; [10]): 0
Cocklebur plant response rating (cocklebur; [11]): 0
Cocklebur plant response rating (cocklebur; [12]): 0
Cocklebur plant response rating (cocklebur; [13]): 0
Plant response rating, Cocklebur (cocklebur; [14]): 0
Cocklebur plant response rating (cocklebur; [15]): 3
Cocklebur plant response rating (cocklebur; [17]): 0
Cocklebur plant response rating (cocklebur; [18]): 2
Velvetleaf plant response rating (velvetleaf; [8]): 0
Velvetleaf plant response rating (velvetleaf; [9]): 0
Velvetleaf plant response rating (0 to 10 scale) (velvetleaf; [10]): 0
Velvetleaf plant response rating (velvetleaf; [11]): 0
Velvetleaf plant response rating (velvetleaf; [12]): 0
Plant response rating, Velvetleaf (velvetleaf; [14]): 0
Velvetleaf plant response rating (velvetleaf; [15]): 3
Plant response rating, Velvetleaf (velvetleaf; [16]): 0
Velvetleaf plant response rating (velvetleaf; [17]): 4
Velvetleaf plant response rating (velvetleaf; [18]): 3
Wheat plant response rating (wheat; [8]): 3
Wheat plant response rating (wheat; [9]): 0
Wheat plant response rating (0 to 10 scale) (wheat; [10]): 0
Wheat plant response rating (wheat; [11]): 0
Wheat plant response rating (wheat; [12]): 0
Plant response rating, Wheat (wheat; [14]): 0
Wheat plant response rating (wheat; [15]): 4
Plant response rating, Wheat (wheat; [16]): 0
Wheat plant response rating (wheat; [17]): 3
Wheat plant response rating (wheat; [18]): 2
Sugarbeets plant response rating (sugar beet; [7]): 0
Sugarbeets plant response rating (sugar beet; [8]): 0
Sugarbeets plant response rating (sugar beet; [9]): 0
Sugarbeets plant response rating (0 to 10 scale) (sugar beet; [10]): 0
Sugarbeets plant response rating (sugar beet; [11]): 0
Sugarbeets plant response rating (sugar beet; [12]): 0
Sugarbeets plant response rating (sugar beet; [13]): 0
Plant response rating, Sugarbeets (sugar beet; [14]): 0
Sugarbeets plant response rating (sugar beet; [15]): 0
Plant response rating, Sugarbeets (sugar beet; [16]): 0
Sugarbeets plant response rating (sugar beet; [17]): 0
Sugarbeets plant response rating (sugar beet; [18]): 0
Giant foxtail plant response rating (giant foxtail; [7]): 0
Giant foxtail plant response rating (giant foxtail; [8]): 0
Giant foxtail plant response rating (giant foxtail; [9]): 3
Giant foxtail plant response rating (0 to 10 scale) (giant foxtail; [10]): 3
Giant foxtail plant response rating (giant foxtail; [11]): 10
Giant foxtail plant response rating (giant foxtail; [12]): 10
Giant foxtail plant response rating (giant foxtail; [13]): 0
Plant response rating, Giant foxtail (giant foxtail; [14]): 0
Giant foxtail plant response rating (giant foxtail; [15]): 0
Plant response rating, Giant foxtail (giant foxtail; [16]): 10
Giant foxtail plant response rating (giant foxtail; [17]): 2
Giant foxtail plant response rating (giant foxtail; [18]): 10
Redroot pigweed plant response rating (pigweed; [7]): 0
Redroot pigweed plant response rating (pigweed; [8]): 2
Redroot pigweed plant response rating (pigweed; [9]): 0
Redroot pigweed plant response rating (0 to 10 scale) (pigweed; [10]): 0
Redroot pigweed plant response rating (pigweed; [11]): 0
Redroot pigweed plant response rating (pigweed; [12]): 0
Redroot pigweed plant response rating (pigweed; [13]): 0
Plant response rating, Redroot pigweed (pigweed; [14]): 0
Redroot pigweed plant response rating (pigweed; [15]): 3
Plant response rating, Redroot pigweed (pigweed; [16]): 0
Redroot pigweed plant response rating (pigweed; [17]): 3
Redroot pigweed plant response rating (pigweed; [18]): 0
Nutsedge plant response rating (purple nutsedge; [7]): 0
Nutsedge plant response rating (purple nutsedge; [8]): 0
Nutsedge plant response rating (purple nutsedge; [9]): 0
Nutsedge plant response rating (0 to 10 scale) (purple nutsedge; [10]): 0
Nutsedge plant response rating (purple nutsedge; [11]): 0
Nutsedge plant response rating (purple nutsedge; [12]): 0
Nutsedge plant response rating (purple nutsedge; [13]): 0
Plant response rating, Nutsedge (purple nutsedge; [14]): 0
Nutsedge plant response rating (purple nutsedge; [15]): 0
Plant response rating, Nutsedge (purple nutsedge; [16]): 0
Nutsedge plant response rating (purple nutsedge; [17]): 0
Nutsedge plant response rating (purple nutsedge; [18]): 0
